Experimental data taken from article PMC3435281 (PLoS ONE, 2012).
“Also recorded” adds a separate entry of the source.

Experiments:
[1] = tested on: AHR^fxneo/fxneo and AHR^fxneo/+ pups; assay: In utero exposure, closure of ductus venosus (DV); format: in vivo, mouse; details: dams 110 mg/kg i.p. at E18.5, examined at 4 weeks
Description: We have previously shown that genetically altered mice that express only 10% of the AHR display a patent ductus venosus (DV) in the liver in nearly all cases. We additionally identified that in utero activation of the receptor in the hypomorphs with TCDD successfully closed the DV [5]. […] At 4 weeks of age, the pups were sacrificed, and DV status was examined by hepatic perfusion with trypan blue.
Timed mating of female AHR^fxneo/+ mice to male AHR^fxneo/fxneo mice was performed. […] When the pups were 4 weeks of age, the status of the DV was determined by hepatic perfusion with Trypan Blue as previously described. Briefly, each mouse was anesthetized and its liver was flushed with PBS through the cannulated portal vein. […] Trypan blue was injected through the portal vein until the liver visibly turned blue (in the case of a closed DV) or until the dye was seen exiting the IVC without perfusing the liver (when the DV is open).

C57BL/6J mice (AHR^b) = assay: In vivo hepatic microsomal EROD activity, C57BL/6J; set-up: species or system mouse; details: oral 30, 80 or 120 mg/kg, 48 hours
Description: (§1) We utilized the wild type rat hepatoma cell line, 5L, which harbors the high affinity AHR isoform, and our newly created AHR^d-15 cell line. […] Groups of control mice were given corn oil alone or BNF at the concentration of 120 mg/kg.
(§2) Figure 3 In Vitro dose response curves. A. Rat hepatoma cell lines bearing the murine AHR^d (AHR^d-15) or the rat AHR^b (5L) were incubated with increasing doses of TCDD in 96-well plates. After 40 hours, EROD activity was performed from whole cell lysate. (n = 3). […] (n = 3). C. Same assay as in A, with increasing doses of BNF. (n = 2). […] Following 48 hours, hepatic microsomal proteins were isolated and used for the assessment of EROD activity. Animals were treated in groups of 4. Error bars: S.D.
Hepatic microsomes were prepared by homogenizing 0.5 g of liver tissue in 5 mL of MENG buffer (25 mM buffer sodium morpholinopropane sulfonate buffer (pH 7.5) containing 0.025% (w/v) NaN3, 1 mM EGTA and 10% (v/v) glycerol). The homogenate was subjected to centrifugation at 10,000×g for 20 minutes, followed by centrifugation of the supernatant for 1 hour at 100,000×g and 4°C. The pellet was dissolved in 15 mM Tris-HCl buffer containing 250 mM sucrose (pH 8.0) and aliquots were stored at −80°C. Protein concentration was determined using the Bicinchoninic Acid Protein Assay Reagent (Pierce Biotechnology, Rockford, IL). […]

[2] = tested on: human 101L-hepatoma cells; assay: Duration of DRE-luciferase activation; format: cell-based; details: for luciferase activity: 100 nM
[3] = tested on: naïve T-cells with allogeneic BALB/C pDCs; assay: pDC/T cell coculture, qPCR of IDO and FoxP3; format: cell-based, mouse; details: 5 days, SU5416 500 nM, TCDD 10 nM
Source text: An important role for the AHR in the immune system, and specifically T-cell differentiation, has been recognized and continues to be characterized in the literature, [7]. Some ligands of the AHR have the ability to enhance Treg differentiation from naïve T-cells (TCDD, kynurenine), while others direct differentiation towards Th17 effector cells (FICZ). […] IDO has long been known to play a role in Treg generation, and may be central to the mechanism of Dendritic Cell (DC)-directed Treg generation. […] As described in the Methods, naïve T-cells were sorted using magnetic bead separation, and placed in culture for 5 days with allogeneic pDCs separated from BALB/C mice. […] After 5 days, cells were collected and mRNA harvested for qPCR analysis of IDO and FoxP3. […] Naïve T cells were placed in culture with IL-6 and TGF-β, and harvested after 3 days of culture.
A. Spleens were harvested from mice and processed in the standard fashion. […] Same assay as A, but mRNA for CYP1B1 and IDO were measured. C.
Naive CD4^+CD25^− T cells were isolated from WT and AHR-null mice and cocultured with BALB/cJ pDCs isolated using the Miltenyi Mouse pDC Isolation Kit (Miltenyi Biotec) at a ratio of 20∶1 or 10∶1 as previously described (13). […] On day 5, cells were harvested and subjected to qPCR analysis.

naïve T cells = assay: Naïve T cells in Th17 conditions, IL-17 ELISA of supernatant; format: cell-based, mouse; details: TGF-β 4 ng/ml, IL-6 20 ng/ml, 3 days
[4] = known value; cited from earlier work
rat AHR^b (5L) = molecular target: T1, rat AHR^b (5L) (Rattus norvegicus, UniProt P41738); assay: EROD activity in rat hepatoma 5L cells; format: cell-based; details: 5L versus AHR^d-15 cells, 40 hours
T1 construct: endogenous in cells; host or cells: rat hepatoma 5L cells
Description: as §1, §2
High-throughput analysis of EROD activity was assayed by adapting a protocol that was described elsewhere, [63]. Briefly, cells were seeded into 96-well plates at ∼ 60% density and treated with the test compounds for 36 hours. The cells were washed with PBS and lysed with 30 µL water and a cycle of freeze-thaw. To each well, 150 µL of 50 mM Hepes buffer containing 26.7 µM dicumarol and 13.3 µM ethoxyresorufin were added. The samples were incubated at 30°C for 20 minutes, and 50 µL of 0.5 mM β-NADPH were added to initiate the reaction. Fluorescence of the resorufin product was detected using the 544 nm excitation and 590 nm emission wavelength filter set.

AHR A375V (AHR^d type) = AHR A375V (AHR^d type) (Mus musculus, UniProt P30561, A375V); assay: DRE-luciferase in COS-1 cells transfected with mAHR-A375V
Description: Figure 4 Splenocytes from wild-type and AHR^d mice analyzed by qPCR for CYP1A1. […] After 4 hours they were analyzed by qPCR for CYP1A1 analysis. The curves are normalized from 0 to 100% response. […] Cos-1 cells were transfected with an AHR containing the same point mutation (valine for alanine) thought to be responsible for the low affinity of the AHR^d isoform compared to AHR^b, and compared to the wild-type AHR response. These cells also harbor a luciferase gene next to the DRE. C. Cos-1 cells were exposed to TCDD. […] The graphs represent normalized data from 0 response to 100% response. They are representative of 2 independent experiments.
These cells also harbor a luciferase gene next to the DRE. […] The data in this figure is normalized from 0 to 100% response.
After 4 hours of treatment, cells were assayed with dual luciferase® reporter assay system (Promega, Madison, WI). The expressed luciferase activity was measured by MicroLumat Plus luminometer (Berthold Technologies, Hartfordshire, UK).

AHR^d = tested on: AHR^d; set-up: method as in PMID 16242735; details: cited from earlier work

| Compound | closed DV, percent of pups ([1]; AHR^fxneo/+ pups) | closed DV, percent of pups ([1]; AHR^fxneo/fxneo pups) | hepatic EROD activity (C57BL/6J mice (AHR^b)) | luciferase activity as percent of TCDD response (1 nM) [2] | luciferase activity ([2]; 4 hours) | luciferase activity ([2]; 24 hours) | FoxP3 mRNA [3] | IDO mRNA [3] | IL-17 protein by ELISA in the supernatant (naïve T cells; higher doses) | IL-17 protein by ELISA in the supernatant (naïve T cells; low doses) | plasma half-life [4] | shift of EROD dose-response to the left for the AHR^b isoform (rat AHR^b (5L)) | duration of DRE-binding ([2]; 1 nM, 4 to 96 hours) | EC50 (AHR A375V (AHR^d type)) | binding affinity of AHR^d relative to AHR^b (AHR^d) |
| --- | --- | --- | --- | --- | --- | --- | --- | --- | --- | --- | --- | --- | --- | --- | --- |
| Cc1cc(C)c(C=C2C(=O)Nc3ccccc32)[nH]1 [SU5416, 3-(3,5-dimethyl-1H-pyrrol-2-ylmethylene)-1,3-dihydro-indole-2-one] | 100% | 59% | dose-dependent increase | ≤ 20% | has activity | no longer causes luciferase activity | generated; also recorded: to a greater extent than TCDD | generated; also recorded: to a greater extent than TCDD | did not see this effect | small increase | 30 min | – | – | – | – |
| Clc1cc2c(cc1Cl)Oc1cc(Cl)c(Cl)cc1O2 [TCDD, 2,3,7,8-tetrachlorodibenzo-p-dioxin] | – | – | – | – | – | – | upregulation was also seen | upregulation was also seen | – | – | – | 1.5 orders of magnitude | long duration DRE-binding | 2.47 nM | one-fifteenth to one-twentieth |
